Like-named read-outs stand apart in the source and are kept apart here.
How the values were obtained:
[1] = test system: A549 (carcinomic human alveolar basal epithelial cell); test: CCK-8 antiproliferative assay, A549 cell line; type: cell-based
Procedure: (§1) In vitro cytotoxicity of the γ-lactam derivatives was evaluated by testing their antiproliferative activities against several human cancer cell lines. Cell counting kit (CCK-8) assay was used for the evaluation of growth inhibition.
(§2) All stock solutions of the investigated compounds were prepared by dissolving the powdered materials in appropriate amounts of DMSO. The final concentration of DMSO never exceeded 5% (v/v) in reactions. The stock solution was stored at 5 °C until it was used.
(§3) All were supplemented with 10% of fetal bovine serum (FBS) (Sigma-Aldrich, Madrid, Spain) and with 1% of NORMOCIN solution (Thermo Fisher, Waltham, Massachusetts, MA, USA). […] For cytotoxicity experiments, A549 cells were seeded in 96-well plates at a density of 2.5–3 × 10^3 cells per well and incubated overnight to achieve 70% of confluence at the time of exposition to the cytotoxic compound.
(§4) Both were supplemented with 10% of fetal bovine serum (FBS) (Sigma-Aldrich, Spain) and with 1% of NORMOCIN solution (Thermo Fisher, Waltham, Massachusetts, MA, USA). […] For cytotoxicity experiments, A549 cells were seeded in 96-well plates at a density of 2.5–3 × 10^3 cells per well and incubated overnight to achieve 70% of confluence at the time of exposition to the cytotoxic compound.

[2] = test system: MRC5 non-malignant lung fibroblasts; test: CCK-8 assay on non-malignant cells for selective toxicity; type: cell-based; settings: Homo sapiens
Procedure: as §1, §2, §3, §4

[3] = test system: SKOV3 (human ovarian carcinoma); test: CCK-8 antiproliferative assay, SKOV3 cell line
Procedure: as §1, §2, §3

[4] = test system: RKO (human colon epithelial carcinoma); test: CCK-8 antiproliferative assay, RKO cell line; type: cell-based
Procedure: as §1, §2, §3

[5] = Solubility in solvents compatible with in vitro assays; type: physicochemical; settings: in words
[6] = Homo sapiens, A549, read-out: IC50 of individual enantiomers of 4v
[7] = Homo sapiens, A549, read-out: IC50 A549
[8] = Homo sapiens, SK-OV-3, read-out: IC50 SKOV3
[9] = MRC5 non-malignant lung fibroblasts, CCK-8, read-out: IC50 MRC5
[10] = Homo sapiens, A549, A549 cell line, CCK-8, read-out: IC50 A549
[11] = Homo sapiens, SK-OV-3, read-out: IC50 SKOV3, SKOV3 cell line, CCK-8

Compound | IC50 [2, 9] | IC50 [1, 10] | IC50 [3, 11] | also measured
CCOP(=O)(C[C@H]1C=C(Nc2ccc(C)cc2)C(=O)N1c1ccc(C)cc1)OCC [(R)-4v] | – | – | – | IC50 [1, 6]: 9.23 ± 1.68 µM
CCOP(=O)(CC1C=C(Nc2ccc(C)cc2)C(=O)N1c1ccc(C)cc1)OCC (stereo not drawn) [4v] | – | – | – | IC50 ([2]; MRC5, read-out: IC50 MRC5): > 50 µM; IC50 [1, 7]: 11.3 ± 1.8 µM; IC50 [3, 8]: > 50 µM; IC50 [4]: > 50 µM
O=C1C(Nc2ccc3ccccc3n2)=CC(c2ccc([N+](=O)[O-])cc2)N1c1ccc2ccccc2n1 (stereo not drawn) [12a] | > 50 µM | 9.25 ± 1.49 µM | > 50 µM | Cytotoxic activity against SKOV3 cell line, in words [3]: No activity
Cc1ccc(NC2=CC(c3cccc(C)c3)N(c3ccc(C)cc3)C2=O)cc1 (stereo not drawn) [4d] | > 50 µM | 31.2 ± 1.04 µM | > 50 µM | –
Cc1ccc(NC2=CC(C(F)(F)F)N(c3ccc(C)cc3)C2=O)cc1 (stereo not drawn) [4u] | – | > 50 µM | > 50 µM | IC50 [4]: > 50 µM
O=C1C(Nc2cccc(C(F)(F)F)c2)=CC(c2ccc([N+](=O)[O-])cc2)N1c1cccc(C(F)(F)F)c1 (stereo not drawn) [11b] | 44.6 ± 1.16 µM | 2 ± 0.78 µM | 8.5 ± 0.54 µM | –
Cc1ccc(NC2=CC(c3cccs3)N(c3ccc(C)cc3)C2=O)cc1 (stereo not drawn) [4l] | > 50 µM | 12.7 ± 1.07 µM | 12.7 ± 1.83 µM | –
Cc1ccc(/N=C(/C=C/C=C/c2ccccc2)C(=O)Nc2ccc(C)cc2)cc1 [20a, (2Z, 3E, 5E)-6-Phenyl-N-(p-tolyl)-2-(p-tolylimino)hexa-3,5-dienamide] | > 50 µM | 6.9 ± 0.73 µM | > 50 µM | –
O=C1C(Nc2ccc(Br)cc2)=CC(c2ccc([N+](=O)[O-])cc2)N1c1ccc(Br)cc1 (stereo not drawn) [8a] | – | > 50 µM | > 50 µM | –
Cc1ccc(NC2=CC(CP(=O)(c3ccccc3)c3ccccc3)N(c3ccc(C)cc3)C2=O)cc1 (stereo not drawn) [4w] | 30.1 ± 0.49 µM | 5.67 ± 0.9 µM | 10.8 ± 0.88 µM | IC50 [4]: 28.1 ± 1.47 µM
O=C1C(Nc2ccc(Br)cc2)=CC(c2ccc(C(F)(F)F)cc2)N1c1ccc(Br)cc1 (stereo not drawn) [8b] | – | > 50 µM | > 50 µM | IC50 [4]: > 50 µM
Cc1ccc(NC2=CC(c3cccc([N+](=O)[O-])c3)N(c3ccc(C)cc3)C2=O)cc1 (stereo not drawn) [4h] | 27.2 ± 1.24 µM | 7.33 ± 0.57 µM | 27.7 ± 1.32 µM | –
Cc1ccc(NC2=CC(c3ccc4ccn(C)c4c3)N(c3ccc(C)cc3)C2=O)cc1 (stereo not drawn) [4j] | > 50 µM | 19.3 ± 0.7 µM | > 50 µM | –
Cc1ccc(NC2=CC(c3ccc([N+](=O)[O-])cc3)N(c3ccc(C)cc3)C2=O)cc1 (stereo not drawn) [4g] | 26.6 ± 2.89 µM | 17.1 ± 1.58 µM | 22.9 ± 0.63 µM | IC50 [4]: 23.8 ± 2.53 µM
Cc1ccc(N[C@@H]2C[C@H](C(F)(F)F)N(c3ccc(C)cc3)C2=O)cc1 [18a] | > 50 µM | 3.27 ± 0.65 µM | > 50 µM | –
Cc1ccc(NC2=CCN(c3ccc(C)cc3)C2=O)cc1 [4a, 1-(p-Tolyl)-3-(p-tolylamino)-1,5-dihydro-2H-pyrrol-2-one] | > 50 µM | – | – | melting point: 178 to 180 °C; Cytotoxic activity against SKOV3 cell line, in words [3]: did not show activity; IC50 [3, 8]: > 50 µM
Cc1ccc(NC2=CC(c3ccc(C(F)(F)F)cc3)N(c3ccc(C)cc3)C2=O)cc1 (stereo not drawn) [4i] | – | > 50 µM | > 50 µM | IC50 [4]: > 50 µM
Cc1ccc(NC2=CC(/C=C/c3ccccc3)N(c3ccc(C)cc3)C2=O)cc1 (stereo not drawn) [4r] | 18.2 ± 0.81 µM | ~10 µM | ~10 µM | IC50 ([1]; A549 cell line, CCK-8, read-out: IC50 A549): 10.3 ± 0.8 µM; IC50 ([3]; read-out: IC50 SKOV3, SKOV3 cell line, CCK-8): 9.59 ± 0.82 µM
Cc1ccc(NC2=CC(c3ccc(F)cc3)N(c3ccc(C)cc3)C2=O)cc1 (stereo not drawn) [4f] | > 50 µM | 10.7 ± 1.21 µM | 23.5 ± 0.75 µM | –
CCOC(=O)C1(C)C=C(Nc2ccc(C)cc2)C(=O)N1c1ccc(C)cc1 (stereo not drawn) [compound 16, Ethyl 2-methyl-5-oxo-1-(p-tolyl)-4-(p-tolylamino)-2,5-dihydro-1H-pyrrole-2-carboxylate] | > 50 µM | 14 ± 1.05 µM | > 50 µM | melting point: 188 to 190 °C (dec.); IC50 [4]: > 50 µM
Cc1ccc(NC2=CC(C)N(c3ccc(C)cc3)C2=O)cc1 (stereo not drawn) [4n] | > 50 µM | 15.7 ± 0.92 µM | 29.2 ± 1 µM | –
Cc1ccc(\N=C(/C=C/C=C/c2ccc(C(F)(F)F)cc2)C(=O)Nc2ccc(C)cc2)cc1 [20b] | > 50 µM | 9.77 ± 0.17 µM | > 50 µM | –
CC1=C(Nc2ccc(C)cc2)C(=O)N(c2ccc(C)cc2)C1c1ccc([N+](=O)[O-])cc1 (stereo not drawn) [5a] | > 50 µM | 2.05 ± 0.23 µM | > 50 µM | –
CCOC(=O)[C@]1(C)C[C@@H](Nc2ccc(C)cc2)C(=O)N1c1ccc(C)cc1 (relative stereo) [compound 17, Ethyl (2S*, 4R*)-2-methyl-5-oxo-1-(p-tolyl)-4-(p-tolylamino)-pyrrolidine-2-carboxylate] | – | > 50 µM | > 50 µM | melting point: 173 to 174 °C

Compound | IC50 [2, 9] | IC50 [1, 10] | IC50 [3, 11] | also measured
CCOP(=O)(CC1C=C(Nc2ccc(OC)cc2)C(=O)N1c1ccc(OC)cc1)OCC (stereo not drawn) [6c] | – | – | – | IC50 ([2]; MRC5, read-out: IC50 MRC5): > 50 µM; IC50 [1, 7]: 6.84 ± 0.22 µM; Cytotoxic activity against SKOV3 cell line, in words [3]: did not show any cytotoxicity; IC50 [3, 8]: > 50 µM
CCOP(=O)(C[C@H]1C[C@@H](Nc2ccc(C)cc2)C(=O)N1c1ccc(C)cc1)OCC [18b] | – | – | – | IC50 ([2]; MRC5, read-out: IC50 MRC5): > 50 µM; IC50 [1, 7]: 4.25 ± 0.65 µM; IC50 [3, 8]: > 50 µM; IC50 [4]: > 50 µM
Cc1ccc(NC2=CC(C(C)C)N(c3ccc(C)cc3)C2=O)cc1 (stereo not drawn) [4o] | > 50 µM | 11.1 ± 0.71 µM | > 50 µM | –
COc1cccc2c1C(=O)c1c(O)c3c(c(O)c1C2=O)C[C@@](O)(C(=O)CO)C[C@@H]3O[C@H]1C[C@H](N)[C@H](O)[C@H](C)O1 [Doxorubicin, reference compound] | > 50 µM | – | – | –
COC(=O)C1=C(Nc2ccc(C)cc2)C(=O)N(c2ccc(C)cc2)C1c1ccccc1 (stereo not drawn) [5c] | > 50 µM | – | – | melting point: 179 to 181 °C
COc1ccc(NC2=CC(c3ccc([N+](=O)[O-])cc3)N(c3ccc(OC)cc3)C2=O)cc1 (stereo not drawn) [6b] | > 50 µM | 31.5 ± 1.37 µM | > 50 µM | IC50 [4]: > 50 µM
Cc1ccc(NC2=CC(c3ccc(C)cc3)N(c3ccc(C)cc3)C2=O)cc1 (stereo not drawn) [4c] | > 50 µM | 21 ± 1.64 µM | > 50 µM | melting point: 210 to 213 °C
Cc1ccc(NC2=CC(c3ccc4ccccc4c3)N(c3ccc(C)cc3)C2=O)cc1 (stereo not drawn) [4m] | 21.3 ± 0.74 µM | 12.1 ± 0.74 µM | 30.5 ± 1.34 µM | –
COc1ccc(NC2=CC(c3ccccc3)N(c3ccc(OC)cc3)C2=O)cc1 (stereo not drawn) [6a] | > 50 µM | 12 ± 1.96 µM | 6.84 ± 0.59 µM | –
O=C1C(Nc2cccc(C(F)(F)F)c2)=CCN1c1cccc(C(F)(F)F)c1 [11a] | > 50 µM | 22.9 ± 1.13 µM | > 50 µM | melting point: 160 to 162 °C
Cc1ccc(NC2=C(P(=O)(c3ccccc3)c3ccccc3)CN(c3ccc(C)cc3)C2=O)cc1 [5e] | – | – | – | Solubility in the solvents compatible with the tests for in vitro assays [5]: low solubility
CCOP(=O)(CC1=C(C)C(C)(Nc2ccc(C)cc2)C(=O)N1c1ccc(C)cc1)OCC (stereo not drawn) [compound 19, Diethyl ((3,4-dimethyl-5-oxo-1-(p-tolyl)-4-(p-tolylamino)-4,5-dihydro-1H-pyrrol-2-yl)methyl)phosphonate] | – | – | – | IC50 ([2]; MRC5, read-out: IC50 MRC5): > 50 µM; IC50 [1, 7]: 3.65 ± 0.25 µM; IC50 [3, 8]: > 50 µM; IC50 [4]: > 50 µM
Cc1ccc(NC2=C(Cc3ccccc3)C(c3ccc([N+](=O)[O-])cc3)N(c3ccc(C)cc3)C2=O)cc1 (stereo not drawn) [5b] | 47.6 ± 1.67 µM | 9.92 ± 1.15 µM | > 50 µM | –
O=C1C(Nc2ccccc2F)=CC(c2ccc([N+](=O)[O-])cc2)N1c1ccccc1F (stereo not drawn) [compound 10] | > 50 µM | 4.36 ± 0.51 µM | 5.55 ± 0.62 µM | –
Cc1ccc(/N=C2/C=C(c3ccccc3)N(c3ccc(C)cc3)C2=O)cc1 [compound 21, (Z)-5-phenyl-1-(p-tolyl)-3-(p-tolylimino)-1,3-dihydro-2H-pyrrol-2-one] | 6.12 ± 0.76 µM | 0.6 ± 0.08 µM | 16.7 ± 1.1 µM | melting point: 207 °C (dec.)
O=C1C(Nc2cccc(Cl)c2)=CC(c2ccc([N+](=O)[O-])cc2)N1c1cccc(Cl)c1 (stereo not drawn) [compound 9] | 23.8 ± 1.75 µM | 8.37 ± 1.27 µM | 16.1 ± 0.81 µM | –
Cc1ccc(NC2=CC(c3ccco3)N(c3ccc(C)cc3)C2=O)cc1 (stereo not drawn) [4k] | > 50 µM | 11.5 ± 0.85 µM | > 50 µM | –
O=C1C(Nc2ccc(Cl)cc2)=CC(c2ccc([N+](=O)[O-])cc2)N1c1ccc(Cl)cc1 (stereo not drawn) [compound 7] | > 50 µM | 17.2 ± 2.1 µM | > 50 µM | –
CCOP(=O)(OCC)C1=C(Nc2ccc(C)cc2)C(=O)N(c2ccc(C)cc2)C1 [5d] | – | – | – | IC50 ([2]; MRC5, read-out: IC50 MRC5): > 50 µM; IC50 [1, 7]: > 50 µM; IC50 [3, 8]: > 50 µM; IC50 [4]: > 50 µM
Cc1ccc(NC2=CC(c3ccccc3C)N(c3ccc(C)cc3)C2=O)cc1 (stereo not drawn) [4e] | > 50 µM | 41.3 ± 1.29 µM | > 50 µM | –
Cc1ccc(NC2=CC(CC(C)C)N(c3ccc(C)cc3)C2=O)cc1 (stereo not drawn) [4p] | 24.1 ± 1.64 µM | 20.1 ± 2 µM | > 50 µM | melting point: 178 to 179 °C
Cc1ccc(NC2=CC(c3c(F)c(F)c(F)c(F)c3F)N(c3ccc(C)cc3)C2=O)cc1 (stereo not drawn) [4t] | > 50 µM | 33.5 ± 1.68 µM | > 50 µM | IC50 [4]: > 50 µM
CCOP(=O)(C[C@@H]1C=C(Nc2ccc(C)cc2)C(=O)N1c1ccc(C)cc1)OCC [(S)-4v] | – | – | – | IC50 [1, 6]: 10.5 ± 0.8 µM

— publication PMC8400033, “A Multicomponent Protocol for the Synthesis of Highly Functionalized γ-Lactam Derivatives and Their Applications as Antiproliferative Agents” (Pharmaceuticals, 2021)
